Data as given in a melting point compilation (Tetko et al.; mined from patent text by program, amines drawn as free bases though some values may be those of a salt).

Structure (SMILES) | melting point [°C]
N#Cc1nn(-c2c(Cl)cc(C(F)(F)F)cc2Cl)cc1C=O | 168
NOCC(O)CN1CCOCC1 (stereo not drawn) | 83 to 85
c1ccc(-c2nnc3n2-c2ccccc2Cn2cccc2-3)nc1 | 255 to 257
COc1cccc(C2CCCCNC2=O)c1 (stereo not drawn) | 116 to 117
Cn1nc(Br)c([N+](=O)[O-])c1NCCO | 150
Cc1cccc2[nH]nnc12 | 145 to 146
CSc1nc2cc(Cl)c(Cl)cc2n1C | 110
CCCc1nc2c(N)nc(C)c(C)c2n1CCCC(=O)N1CCOCC1 | 164 to 165
COC(=O)NC1CCc2c(ccc(OC)c2OC)C1 (stereo not drawn) | 109 to 111
S=C(N/N=C/c1cccnc1)Nc1ccccc1 | 208 to 210
O=C1O[C@@H]2C[C@@]1(O)CC[C@H]2O | 212 to 214
COC(=O)c1ccc(Oc2ccc(N3CCN(c4ccncc4)CC3)cc2)nc1 | 143 to 144
CCOC(=O)c1ncn2c1[C@@H]1CCCN1C(=S)c1ccccc1-2 | 227 to 229
N#Cc1ccc(NCc2ccccc2)nc1 | 133 to 134
COc1ccccc1N1CCN(CCOc2ccc(-c3cn4ccccc4n3)cc2)CC1 | 151 to 153
COc1c(Cc2ccccc2)cc(C(=O)c2cccs2)c2ccccc12 | 111 to 113
O=[N+]([O-])c1cn2c(n1)OC(COc1ccc(N3CCN(NCc4ccc(-c5ccc(C(F)(F)F)cc5)cc4)CC3)cc1)CC2 (stereo not drawn) | 294 to 295
CNC(=O)N1CCN(C(=O)Cc2ccc(Cl)c(Cl)c2)C(CN2CCC(O)C2)C1 (stereo not drawn) | 57
COc1cc(OCC(=O)N[C@@H]2CCN(Cc3ccccc3)C2)ccc1C=O | 98 to 101
Clc1nccc(N2CCC3(CC2)COc2ccccc23)c1Cl | 177
ON=Cc1c(Br)ccc2c1OCO2 | 239 to 240
CC1(C)Oc2cc3nonc3cc2C(N2CC(O)CCC2=O)C1O (stereo not drawn) | 178 to 182
CC(=O)Nc1ccc2cnn(-c3ccnc(N[C@H]4CC[C@H](O)CC4)n3)c2c1 | 288 to 290
CC(=O)CCC(=O)N(C)c1nnc(-c2cccnc2)s1 | 146 to 147
O=C(O)N1CCN(C(=O)c2cccs2)CC1 | 76
CCC(NS(C)(=O)=O)P(=O)(Oc1ccccc1)Oc1ccccc1 (stereo not drawn) | 136 to 139
CN(c1ccccc1C=CC1=NCCC1)C1CCCCC1 | 163 to 164

Structure (SMILES) | melting point [°C]
COc1cccc2c1CCC1=C2CC(=O)N1 | 220 to 222
N#CC(N)=C(N)Sc1ccc(Cl)cc1 | 107 to 108
CCCN1CCN(c2ccc(C(C)=O)cc2)CC1 | 68 to 70
CN(O)C(=O)C(=Cc1ccc2ccccc2c1)c1ccc(Cl)cc1 | 140 to 142
O=Cc1cccc([N+](=O)[O-])c1F | 46 to 47
Fc1ccc(C2CC3CCC(C3)C23CO3)cc1 (stereo not drawn) | 178 to 180
OCc1ccnc(Nc2ncc(-c3ccccc3)s2)c1 | 236 to 237
C1=CC2=NC=NC23CCNCC3N1 (stereo not drawn) | 94 to 95
C[C@@H]1Nc2ccc(-c3cc(F)cc(C#N)c3)cc2[C@](C)(c2ccccc2)O1 | 128 to 129
CC(=O)OC1CSC(Oc2cncc(F)c2)C(OC(C)=O)C1OC(C)=O (stereo not drawn) | 143
O=C1OCCC1=Cc1ccccc1OCC(O)CN1CCC(c2ccc3ccccc3c2)CC1 (stereo not drawn) | 127 to 128
COc1cc(F)c(C)cc1C(=O)O | 125 to 127
O=[N+]([O-])c1cc2cc(Br)ccc2nc1Cl | 203
NCCCOc1ccc(OCc2ccccc2)cc1 | 115
COc1cc(CC(C)=O)c([N+](=O)[O-])cc1Cl | 114 to 115
COc1cc(C2(C=O)C=CC=CC2)ccc1OCCCBr (stereo not drawn) | 88 to 89
O=c1nc(-c2ccccc2)cnn1-c1cc(Cl)cc(Cl)c1 | 160 to 161
CC1CCC(=NC(=O)Nc2cccc(Cl)c2)N1C (stereo not drawn) | 129 to 130
Cc1nc(-c2ccc(Cl)cc2)n[nH]1 | 173 to 175
CC(C)(C)C1CSC2(CCC(C)(C(Cl)Cl)CC2)SC1 (stereo not drawn) | 163
CS(=O)(=O)OC1CC(n2ccc(=O)[nH]c2=O)OC1COC(c1ccccc1)(c1ccccc1)c1ccccc1 (stereo not drawn) | 106 to 108
CCCCCCCCCCCCNC(=O)N(C)C[C@H](O)[C@@H](O)[C@H](O)[C@H](O)CO | 117
CC1(C)CC(=O)C(C(=O)Nc2cc(F)cc(F)c2)C(=O)C1F (stereo not drawn) | 131 to 132
Clc1c[nH]nc1-c1cc(Br)cc(Br)c1 | 188
Cc1nc(/C=C/c2cn(-c3ccccc3)nc2O)cs1 | 211 to 212
C[C@H]1OC(=O)[C@@H]2C=C3CCCC[C@H]3[C@H](O)[C@H]12 | 156 to 157

Results, then the compound that gave them:

melting point [°C] | Structure (SMILES)
250 to 252 | CN(C(=O)C1CCCCC1)c1ccccc1C(c1ccc(O)cc1)c1ccc(O)cc1
206 | COC(=O)[C@H](O)[C@@H](N)c1ccc(C(N)=O)cc1
270 to 271 | O=C(O)COc1ccc2c(=O)c3c(Cl)cccc3oc2c1Cl
292 to 294 | NC(=O)NCc1cccc2c1C(=O)N(C1CCC(=O)NC1=O)C2=O (stereo not drawn)
137 to 139 | CC(C)(C)c1ccccc1N1CCN(C(=O)c2ccc(F)cc2)CC1
148 to 150 | CC(C)c1cc(S(=O)(=O)c2ccc(N)cc2)cc(N2CCCC2)n1
126 to 128 | CCN(CC)C(C)CNc1ccc(NCC(C)N(CC)CC)c2c1C(=O)c1c(O)ccc(O)c1C2=O (stereo not drawn)
64 to 70 | CC(C)(OCCCCCCCCc1csc(-c2ccccc2)n1)C(=O)O
130 to 133 | Cc1ccc(C2C(=O)Oc3c2cc(C(C)(C)C)cc3C(C)(C)C)cc1 (stereo not drawn)
238 | CC(C)C(c1ccc2[nH]c(=O)c(C(=O)O)nc2c1)n1ccnc1 (stereo not drawn)
64 to 65 | CC(C)(C)c1cc(SCCC=O)cc(C(C)(C)C)c1O
190 to 193 | CC(C)C(NC(=O)OCc1ccncc1)C(=O)NC(Cc1ccccc1)C(O)C(O)C(Cc1ccccc1)NC(=O)C(NC(=O)OCc1ccncc1)C(C)C (stereo not drawn)
169 to 170 | Ic1ccc2c(c1)Sc1ccc(I)cc1S2
143 to 144 | Cc1ccc(-c2c(NS(=O)(=O)c3ccc(C(C)(C)C)cc3)nc(C(C)C)nc2OCCO)cc1
167 | CCOC(=O)c1cnn(C)c1C(=O)Nc1ccn2nc(N(C)CC)nc2c1
178 to 179 | CCOc1cc(N(Cc2cccnc2)c2ccc(C(=O)O)cc2)ccc1OC(F)F
49 to 52 | Cc1nc(Cl)c2ncn(-c3ccc(C(C)C)cc3Br)c2n1
234 | O=C1NC(=O)C(=Cc2ccc(OCCNc3ncccn3)cc2)S1
246 to 249 | COc1cc2ncc(C#N)c(Nc3cccc(N(C)C)c3)c2cc1OC
108 | CCc1nc2c(C)cc(C)nc2n1-c1ccc(CC(C)OC(=O)NS(=O)(=O)c2ccc(C)cc2)cc1 (stereo not drawn)
169 to 173 | CC(C)(NC(=O)C(CS)NC(=O)c1ccccc1)c1ccccc1 (stereo not drawn)
226 | CC(Sc1ccc(NC(=O)NC(=O)c2ccccc2Cl)cc1)c1ccccc1 (stereo not drawn)
160 to 170 | CCOC(=O)CC[C@H](NC1CCC(CCC2CNc3nc(NC(=O)C(C)(C)C)nc(O)c3C2)CC1)C(=O)OCC (stereo partly drawn)
209 to 213 | CCOc1ccc(-n2c(-c3ccc(SC)cc3)nc(SC)c(C#N)c2=O)cc1
200 | CS(=O)(=O)C(=C1CN(C(c2ccc(Cl)cc2)c2ccc(Cl)cc2)C1)c1cc(F)cc(F)c1

melting point [°C] | Structure (SMILES)
115 to 118 | Cc1nc(C)nc(NC(=O)NS(=O)(=O)c2ccccc2Cl)n1
75 to 77 | COc1ccc(-c2cccc(-c3nc(C(C)C)[nH]c3-c3cccc(C)n3)c2)cc1
110 | CCCC(C)(C)NC(=O)n1nc(C)n(N)c1=O
94 to 97 | CCc1ccccc1OCC(C)NC(=O)C(C#N)C(C)(C)C (stereo not drawn)
145 to 146 | CCC(C)(C)c1ccc(OCCCCNC(=O)c2[nH]c3ccc(OC)cc3c2N)c(C(C)(C)CC)c1
169 to 172 | COc1cccc(C(=O)Nc2ccc(-n3nc(C(F)(F)F)cc3C(F)(F)F)cc2)c1
193 | C[C@H]1c2cc(F)ccc2-c2ccccc2N1S(=O)(=O)c1ccc(O)cc1
69.2 to 70 | CC(C)(COCC(C)(C)c1ccc(O)cc1)c1ccc(O)cc1
146 | Cc1cc(=O)c(Oc2ccc(F)cc2C)c(-c2ccc(S(C)(=O)=O)cc2)o1
239 to 240 | CCOC(=O)C(=O)Nc1ccc2c(c1)OCC(=O)N2
272 to 273 | O=C(Nc1ccc(C(=O)N2CCCC(=NO)c3ccccc32)cc1)c1cc(Cl)cc(Cl)c1
209 to 212 | CCOC(=O)c1cc2c(C=O)cc3c4ccccc4ccc3c2o1
174 to 176 | O=S1(=O)c2ccccc2Oc2cc(F)ccc21
236 | CCCCc1ccc(-c2[nH]c(=O)n(C3CCCCC3)c2C)cc1
90 to 92 | CCCC(C)(C)c1cc(C=O)cc(C(C)(C)CCC)c1O
91 to 92 | CCOCC1Cc2cc(S(=O)(=O)N(C)C)c(Cl)c(Cl)c2O1 (stereo not drawn)
214 to 216 | O=C(NO)c1ccc(CNC(=O)c2[nH]c(-c3cccs3)cc2-c2ccc(F)cc2)cc1
165 to 166 | O=C(O)CCCc1ccc(C(NS(=O)(=O)c2ccc(Cl)cc2)C2CCCCC2)cc1 (single isomer, unassigned; (+))
192 to 194 | Cc1c(C)c2c(c(C)c1OCc1ccccc1)CCC(C)(CN1CCN(CCOc3ccc(C=C4SC(=O)NC4=O)cc3)CC1)O2 (racemic)
190 to 192 | S=C(NCCN(Cc1ccc(Cl)c(Cl)c1)c1ccc(Br)cn1)Nc1ccc2nn[nH]c2c1
104 to 105 | CCNC(=O)c1c([Si](C)(C)C)ccc(CF)c1Cl
164 to 165 | CC(C)c1nc(CN2C(=O)C3(COc4cc5c(cc43)OCO5)c3c(-c4ccc(N(C)C)nc4)cccc32)cs1 (stereo not drawn)
> 280 | COc1cc(C)c(/C=C/c2nc3c([nH]2)c(=O)n(C)c(=O)n3C)cc1C
169 to 171 | CCCCc1oc2ccccc2c1-c1ncc(-c2ccc3cc(OC)ccc3c2)o1
108 to 110 | CN1/C(=C\C(=S)NC(=O)c2ccccc2)C(C)(C)c2ccccc21
